# Assay results as given in PubChem BioAssay AID588780 (Sanford-Burnham Center for Chemical Genomics, 2011).
# Calls of active or inactive are those of the source.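 Rule for the calls: active = compounds whose fitted half-maximal concentration in the cell-protection dose series is at or below a set limit; inactive = the rest.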
# System: H9c2 cardiomyocytes, 2-deoxyglucose stress, ATP luminescence, 2 h
# Assay: H9c2 cell survival under 2-deoxyglucose stress – uHTS hits, dose response (AID 588780)
row,SMILES,IC50
1,CC(=O)c1cccc(-c2cnc3c(NC=O)cc(-c4ccccc4F)cn23)c1,17.9 µM
2,CC1CCCC(C)N1C(=O)COC(=O)c1n[nH]c(=O)c2ccccc12 (configuration not stated),> 79 µM (inactive)
3,CC(=O)c1ccc(N2CCN(C(=O)C3CCCN(c4ncnc5c4nc4n5CCCCC4)C3)CC2)cc1 (configuration not stated),17.5 µM
4,CC(C)(C)NC(=O)c1cccc(NC(=O)c2ccc(NC(=O)c3ccco3)cc2)c1,15.4 µM
5,Cc1sc2nc(SCC(=O)N3CCCC3)[nH]c(=O)c2c1C,> 79 µM (inactive)
6,O=C(CCC(=O)N1CCN(C2CCCCC2)CC1)Nc1nnc(C(F)(F)F)s1,> 79 µM (inactive)
7,COc1ccc2[nH]c(=O)c(CN(Cc3cccnc3)S(=O)(=O)c3ccccc3F)cc2c1,> 79 µM (inactive)
8,CN1C(=O)CSc2ccc(NC(=O)Nc3ccccn3)cc21,> 79 µM (inactive)
9,CC(OC(=O)c1cc2c(ccc3ccccc32)oc1=O)c1nc2ccccc2s1 (configuration not stated),15.7 µM
10,COc1ccc(-n2c(/C=C/c3ccc(O)cc3)nc3ccccc3c2=O)cc1,15.8 µM
11,CCOC(=O)N1CCC(n2c(SCC(=O)N3CCC(C)CC3)nc3ccccc3c2=O)CC1,> 79 µM (inactive)
12,COc1cc(NC(=O)c2ccco2)c(C(=O)OCC(=O)c2c[nH]c3ccccc23)cc1OC,7.59 µM
13,O=C(CNC(=O)c1ccccc1F)N/N=C/c1cc(Br)ccc1OC(=O)/C=C/c1ccco1,> 79 µM (inactive)
14,O=C(COC(=O)Cn1[nH]c(=O)c2ccccc2c1=O)Nc1c(Cl)cccc1C(F)(F)F,> 79 µM (inactive)
15,COCc1c(C(=O)Nc2ccc3nc(N4CCOCC4)sc3c2)oc2ccccc12,> 79 µM (inactive)
16,O=S(=O)(c1ccccc1)N1CCN(c2nc(-c3cccnc3)nc3ccccc23)CC1,12.4 µM
17,COc1cc(Nc2nc3ccccc3n3nnnc23)cc(OC)c1OC,> 79 µM (inactive)
18,O=C(COC(=O)c1cc(-c2cccnc2)nc2ccccc12)Nc1ccc(F)cc1F,23.2 µM
19,COC(=O)c1ccc(Cn2nnc3c(=O)[nH]c(C4CCCN(S(=O)(=O)c5ccccc5)C4)nc32)cc1 (configuration not stated),> 79 µM (inactive)
20,COC(=O)c1cc2ccccn2c2c(C(=O)OC)c(C(=O)OC)cc1-2,> 79 µM (inactive)
21,CC(=O)NCCNc1nc2c(-c3ccccc3)nnn2c2ccccc12,> 79 µM (inactive)
22,CCOC(=O)Cc1n[nH]c(=O)c2ccccc12,> 79 µM (inactive)
23,O=C1c2ccccc2NC(c2ccc(-c3ccc(Br)cc3)o2)N1O (configuration not stated),19 µM

row,SMILES,IC50
1,CC(OC(=O)Cc1n[nH]c(=O)c2ccccc12)C(=O)Nc1ccc(F)cc1 (configuration not stated),> 79 µM (inactive)
2,COc1ccc(Nc2nc(C(=O)N3CCc4cc(OC)c(OC)cc4C3)cs2)cc1,> 79 µM (inactive)
3,CC(OC(=O)Cc1n[nH]c(=O)c2ccccc12)C(=O)Nc1ccc(Cl)cn1 (configuration not stated),> 79 µM (inactive)
4,Cc1ccc(NC(=O)c2nc[nH]c2C(=O)NCCCCCNC(=O)OC(C)(C)C)cc1,> 79 µM (inactive)
5,COc1cccc(-c2cnc3c(NC(C)=O)cc(-c4cccc(NS(C)(=O)=O)c4)cn23)c1,> 79 µM (inactive)
6,CC(C)(C)OC(=O)NCc1ccc(NC(=O)c2nc[nH]c2C(=O)NCCCCCCNC(=O)c2[nH]cnc2C(=O)Nc2ccc(CNC(=O)OC(C)(C)C)cc2)cc1,> 79 µM (inactive)
7,Cc1[nH]c2ccccc2c1C(=O)CSc1nc2ccccc2[nH]1,> 79 µM (inactive)
8,CN(CC(=O)Nc1ccccc1Br)C(=O)Cn1[nH]c(=O)c2ccccc2c1=O,> 79 µM (inactive)
9,CCOc1ccc(NC(=O)c2cc3c(=O)n(C)c4ccccc4c3n2C)cc1,11.5 µM
10,CCOC(=O)C1=c2/c(=C/c3ccncc3)c(N)c(C(=O)OC)n2C(=O)C(c2ccncc2)S1 (configuration not stated),> 79 µM (inactive)
11,O=C(NC1CCCCC1)C(c1ccc2ncccc2c1)N(Cc1ccccc1)C(=O)c1ccc2c(c1)OCCO2 (configuration not stated),32 µM (inactive)
12,CSc1nc2sc3c(c2c(=O)[nH]1)CCC3,> 79 µM (inactive)
13,COc1cc(C(=O)Nc2nc(OC)c(-c3ccccc3)c(OC)n2)cc(OC)c1OC,> 79 µM (inactive)
14,COc1ccc(-c2cc(C(=O)NC(C)c3ccccn3)c3ccccc3n2)cc1OC (configuration not stated),13 µM
15,O=C(Nc1ccc2oc(-c3ccccc3F)nc2c1)c1ccc([N+](=O)[O-])o1,> 79 µM (inactive)
16,Cc1cc(CNC(=O)COC(=O)Cn2[nH]c(=O)c3ccccc3c2=O)cc(C)c1O,15.4 µM
17,Cc1cccc(C(C)C)c1NC(=O)C(C)OC(=O)Cc1n[nH]c(=O)c2ccccc12 (configuration not stated),> 79 µM (inactive)
18,Cc1ccc(N2CC(C(=O)NCc3n[nH]c(=O)c4ccccc34)CC2=O)cc1C (configuration not stated),> 79 µM (inactive)
19,C[C@H](NC(=O)c1nc[nH]c1C(=O)NCC(=O)OCc1ccccc1)c1ccccc1,13.6 µM
20,O=C(NCCc1c[nH]c2ccccc12)C(=O)NCC(c1ccco1)N1CCN(c2ccccc2F)CC1 (configuration not stated),> 79 µM (inactive)
21,Clc1nc2sccn2c1/C=N/n1cnc2ccccc21,> 79 µM (inactive)
22,N#CCCN(C(=O)COC(=O)CCc1nc2ccccc2c(=O)[nH]1)c1ccc(F)cc1,> 79 µM (inactive)
23,O=C(Cn1[nH]c(=O)c2ccccc2c1=O)OCC(=O)N1CCc2ccccc2C1,> 79 µM (inactive)

row,SMILES,IC50
1,O=C(CN1C(=O)C2CC=CCC2C1=O)Nc1nc(-c2ccc(F)c(F)c2)cs1 (configuration not stated),> 79 µM (inactive)
2,CC12CCC3C(CCC4CC(O)CCC43C)C1CC(O)C2 (configuration not stated),> 79 µM (inactive)
3,COc1ccc(OCC(=O)N/N=C/c2cccc3cccnc23)cc1,38.6 µM (inactive)
4,O=C(CN1CCN(S(=O)(=O)c2cc(Cl)ccc2Cl)CC1)c1ccc(O)c(O)c1,> 79 µM (inactive)
5,Cc1cccc(NC(=O)c2nc[nH]c2C(=O)NCC(=O)OCc2ccccc2)c1,> 79 µM (inactive)
6,Cn1c(=O)c2c(nc(NCCCO)n2C/C=C/c2ccccc2)n(C)c1=O,> 79 µM (inactive)
7,CCOC(=O)c1[nH]c2cc(OC)c(OC)cc2c1NC(=O)C(C)N1CCN(Cc2ccccc2)CC1 (configuration not stated),> 79 µM (inactive)
8,COc1cc2c(cc1OC)C(COc1ccc3c(C)cc(=O)oc3c1)N(C(=O)c1ccco1)CC2 (configuration not stated),10.1 µM
9,Cc1cc(=O)oc2cc(OCC(=O)N3CCN(C(=O)C4COc5ccccc5O4)CC3)c(Cl)cc12 (configuration not stated),12.7 µM
10,COc1cc(-c2cc(NC(C)=O)c3ncc(-c4ccc(C(C)=O)cc4)n3c2)cc(OC)c1OC,> 79 µM (inactive)
11,O=C(Nc1ccccc1)c1cccc2c(-c3cccnc3)coc12,> 79 µM (inactive)
12,Cc1cc(C)nc(SCc2ccc(C(=O)N/N=C/c3ccccn3)cc2)n1,> 79 µM (inactive)
13,CCNC(=O)/C(C#N)=C/c1c(N(Cc2ccccc2)Cc2ccccc2)nc2ccccn2c1=O,24.6 µM
14,CC(C)(C)OC(=O)C[C@@H]1C/C=C\C[C@@H](CC(=O)N[C@@H](CO)Cc2ccccc2)C(=O)NC[C@@H](c2ccccc2)OC1=O,11.9 µM
15,CCCCN1CC(COCc2ccccc2)Oc2cccc(OCCN3C(=O)[C@@H]4[C@H](C3=O)C3C=C[C@H]4C3)c2S1(=O)=O (some centres not stated),> 79 µM (inactive)
16,O=C(CCn1c(=O)oc2ccccc21)N(Cc1ccccc1)c1ccccc1,> 79 µM (inactive)
17,CC(C)(C)c1ccc(OCCCC(=O)NNC(=O)c2ccccc2O)cc1,> 79 µM (inactive)
18,Cn1c(=O)n(CCc2ccccc2)c(=O)c2c1nc1n2CCN1Cc1ccco1,21.6 µM
19,CC(=O)Nc1cc(-c2ccc(C(=O)N3CCOCC3)cc2)cn2c(-c3ccc(C(C)=O)cc3)cnc12,25.3 µM
20,N#CCCn1c(SCC(=O)c2c[nH]c3ccccc23)nc2ccccc21,49.4 µM (inactive)
21,CN(CC(=O)Nc1c(Cl)cccc1Cl)C(=O)Cn1[nH]c(=O)c2ccccc2c1=O,> 79 µM (inactive)
22,N#Cc1ccccc1OCC(=O)Nc1nc(-c2ccccn2)cs1,> 79 µM (inactive)
23,O=C(Cn1[nH]c(=O)c2ccccc2c1=O)OCC(=O)N1CCCc2ccccc21,51.3 µM (inactive)

row,SMILES,IC50
1,CS(=O)(=O)Nc1cccc(NC(=O)c2cccc3c(-c4cccc(C(N)=O)c4)coc23)c1,> 79 µM (inactive)
2,N#CC1=C(N)Oc2c(O)cc3ccccc3c2C1c1ccsc1 (configuration not stated),> 79 µM (inactive)
3,O=C(CN1C(=O)C2C3C=CC(C3)C2C1=O)Nc1nc(-c2ccccn2)cs1 (configuration not stated),29 µM
4,COc1cc(OC)cc(C(=O)Nc2ccc(C(=O)Nc3ccccc3OC)cc2)c1,15.9 µM
5,COc1ccc(-n2nc(C(=O)NCC(=O)Nc3cc(OC)c(OC)c(OC)c3)c3ccccc3c2=O)cc1Cl,> 79 µM (inactive)
6,Cn1c2ccccc2c(=O)c2ccc(NCc3ccc4c(c3)OCO4)cc21,8.06 µM
7,C=CCOC(=O)COc1ccc2c3c(c(=O)oc2c1)CCCC3,28.1 µM
8,CCn1nc(C(=O)OCC(=O)c2c[nH]c3ccccc23)c2ccccc2c1=O,11.6 µM
9,COC(=O)c1cccc(S(=O)(=O)N(Cc2ccco2)Cc2cc3cc(OC)ccc3[nH]c2=O)c1,> 79 µM (inactive)
10,CSCC[C@H](NC(=O)OC(C)(C)C)C(=O)N/N=C/c1cccc2cccnc12,30.9 µM (inactive)
11,O=C(CNC(=O)c1cccc(F)c1)N/N=C/c1cc(Br)ccc1OC(=O)/C=C/c1ccco1,> 79 µM (inactive)
12,O=C(NCc1ccc2c(c1)OCO2)c1n[nH]c(=O)c2ccccc12,> 79 µM (inactive)
13,CCCCCCn1c(C)nc2c(c1=O)c1nc3ccccc3nc1n2/N=C/c1ccco1,> 79 µM (inactive)
14,COc1cc(C(=O)N/N=C/c2ccc(OC(=O)c3ccccc3)c(OC)c2)ccc1O,> 79 µM (inactive)
15,COCCCn1c(C)nc2c(c1=O)c1nc3ccccc3nc1n2CCc1ccccc1,> 79 µM (inactive)
16,CCOC(=O)c1cnc(SC)nc1Oc1cccc(NC(=O)c2cccc(Cl)c2Cl)c1,20.4 µM
17,O=C1OCCN1C(=O)[C@H]1[C@H](c2ccc([N+](=O)[O-])cc2)C(c2cccc(Cl)c2)=NN1c1ccc(Br)cc1,> 79 µM (inactive)
18,CC(C)(C)OC(=O)CNC(=O)c1[nH]cnc1C(=O)NC(c1ccccc1)c1ccccc1,19.2 µM
19,Cc1sc2nc(CSCC(=O)N(C)c3ccccc3)[nH]c(=O)c2c1C,29.8 µM
20,Cc1ccccc1C1c2[nH]c3ccccc3c2C[C@H]2C(=O)N(c3ccccc3C(=O)NCCCN3CCOCC3)C(=O)N12 (some centres not stated),27.1 µM
21,Cc1cc(-n2c(C)cc(C(=O)COc3ccc4ccc(=O)oc4c3)c2C)no1,> 79 µM (inactive)
22,CCOC(=O)CSc1nc2sc(C)c(C)c2c(=O)[nH]1,> 79 µM (inactive)
23,CCCCn1c(=NC(=O)c2cccnc2)c(C#N)cc2c(=O)n3cccc(C)c3nc21,33.6 µM (inactive)
